Data published in patent US12077503B2, “Substituted cyclic amides and their use as herbicides” (FMC CORPORATION, priority 2015, dated 2024).

Experiments:
Assay type in all cases: in vivo
[1] = test system: Kochia (Kochia scoparia); assay: Test A preemergence
Summary of the method: (§1)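 Preemergence soil spray on seeded pots or post-emergence spray on 1–2 leaf plants, in loam–sand blend. Greenhouse ~10 d. Visual rating 0–100 against untreated plants.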

[2] = test system: barnyardgrass (Echinochloa crus-galli); assay: Test A preemergence
Summary of the method: as §1

[3] = test system: giant foxtail (Setaria faberii); assay: Test A preemergence
Summary of the method: as §1

[4] = test system: pigweed (Amaranthus retroflexus); assay: Test A preemergence
[5] = test system: ragweed (common ragweed, Ambrosia elatior); assay: Test A preemergence
Summary of the method: as §1

[6] = test system: ryegrass, Italian (Italian ryegrass, Lolium multiflorum); assay: Test A preemergence
Summary of the method: as §1

[7] = test system: Galium (catchweed bedstraw, Galium aparine); assay: Test A postemergence
Summary of the method: as §1

[8] = test system: Kochia (Kochia scoparia); assay: Test A postemergence
Summary of the method: as §1

[9] = test system: barnyardgrass (Echinochloa crus-galli); assay: Test A postemergence
Summary of the method: as §1

[10] = test system: blackgrass (Alopecurus myosuroides); assay: Test A postemergence
Summary of the method: as §1

[11] = test system: corn (Zea mays); assay: Test A postemergence
Summary of the method: as §1

[12] = test system: giant foxtail (Setaria faberii); assay: Test A postemergence
Summary of the method: as §1

[13] = test system: pigweed (Amaranthus retroflexus); assay: Test A postemergence
Summary of the method: as §1

[14] = test system: ragweed (common ragweed, Ambrosia elatior); assay: Test A postemergence
Summary of the method: as §1

[15] = test system: ryegrass, Italian (Italian ryegrass, Lolium multiflorum); assay: Test A postemergence
Summary of the method: as §1

[16] = test system: wheat (Triticum aestivum); assay: Test A postemergence
Summary of the method: as §1

[17] = test system: barnyardgrass (Echinochloa crus-galli); assay: Test B flooded paddy test; details: Flood, 250 g ai/ha, 0 to 100 scale where 0 is no effect and 100 is complete control
Summary of the method: (§2)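 Response scored visually against untreated controls, 0 = no effect and 100 = complete control, 13–15 d after treatment in the greenhouse. Compounds added to paddy water held 3 cm above soil surface. Treatment given at 2-leaf stage.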

[18] = test system: ducksalad (Heteranthera limosa); assay: Test B flooded paddy test; details: Flood, 250 g ai/ha, 0 to 100 scale where 0 is no effect and 100 is complete control
Summary of the method: as §2

[19] = test system: rice (Oryra sativa); assay: Test B flooded paddy test; details: Flood, 250 g ai/ha, 0 to 100 scale where 0 is no effect and 100 is complete control
Summary of the method: as §2

[20] = test system: sedge, umbrella (small-flower umbrella sedge, Cyperus difformis); assay: Test B flooded paddy test; details: Flood, 250 g ai/ha, 0 to 100 scale where 0 is no effect and 100 is complete control
Summary of the method: as §2

[21] = 125 g ai/ha, preemergence, 0 to 100 scale (0 no effect, 100 complete control)
[22] = Preemergence, 500 g ai/ha, 0 is no effect, 100 is complete control
[23] = 125 g ai/ha, postemergence, visual injury rating on 0 to 100 scale (0 no effect, 100 complete control), approx. 10 d
[24] = 500 g ai/ha, postemergence, 0 to 100 scale, 0 no effect, 100 complete control
[25] = Postemergence, 125 g ai/ha, visual injury, 0 to 100 scale (0 no effect, 100 complete control), approx. 10 d

SMILES: CN1CC(c2cccc(OC(F)(F)C(F)F)c2)C(C(=O)Nc2cccc(F)c2F)C1=O (stereo not shown) [Compound 392]
- Plant response rating, Kochia [1, 21]: 50
- Kochia plant response rating (0 to 100 scale) [1, 22]: 70
- Plant response rating, Barnyardgrass [2, 21]: 90
- Barnyardgrass plant response rating (0 to 100 scale) [2, 22]: 90
- Plant response rating, Foxtail, Giant [3, 21]: 90
- Foxtail, Giant plant response rating (0 to 100 scale) [3, 22]: 90
- Plant response rating, Pigweed [4, 21]: 70
- Pigweed plant response rating (0 to 100 scale) [4, 22]: 80
- Plant response rating, Ragweed [5, 21]: 70
- Ragweed plant response rating (0 to 100 scale) [5, 22]: 60
- Plant response rating, Ryegrass, Italian [6, 21]: 40
- Ryegrass, Italian plant response rating (0 to 100 scale) [6, 22]: 80
- Galium plant response rating [7, 23]: 70
- Plant response rating, Galium [7, 24]: 70
- Kochia plant response rating [8, 23]: 50
- Plant response rating, Kochia [8, 24]: 70
- Plant response rating, Barnyardgrass [9, 24]: 90
- Plant response rating, Barnyardgrass [9, 25]: 80
- Plant response rating, Blackgrass [10, 24]: 70
- Plant response rating, Blackgrass [10, 25]: 70
- Corn plant response rating [11, 23]: 70
- Plant response rating, Corn [11, 24]: 80
- Foxtail, Giant plant response rating [12, 23]: 90
- Plant response rating, Foxtail, Giant [12, 24]: 90
- Pigweed plant response rating [13, 23]: 60
- Plant response rating, Pigweed [13, 24]: 70
- Ragweed plant response rating [14, 23]: 50
- Plant response rating, Ragweed [14, 24]: 20
- Ryegrass, Italian plant response rating [15, 23]: 50
- Plant response rating, Ryegrass, Italian [15, 24]: 80
- Wheat plant response rating [16, 23]: 20
- Plant response rating, Wheat [16, 24]: 70
- Plant response rating, Barnyardgrass ([17]; 13 to 15 d): 60
- Plant response rating, Ducksalad ([18]; 13 to 15 d): 90
- Plant response rating, Rice ([19]; 13 to 15 d): 20
- Plant response rating, Sedge, Umbrella ([20]; 13 to 15 d): 0

SMILES: CN1C[C@H](c2cc(C(F)F)cs2)[C@@H](C(=O)Nc2cccc(F)n2)C1=O [Compound 1090]
- pest or weed control at 31 g/ha ([1]; Bassia scoparia, pre-emergence, 240 h, 31 g ai/ha, Preemergence, 0 to 100 scale where 0 is no effect and 100 is complete control, read-out: Kochia plant response rating): 20%
- pest or weed control at 125 g/ha ([1]; Bassia scoparia, pre-emergence, 240 h, 125 g ai/ha, preemergence, 0 to 100 scale where 0 is no effect and 100 is complete control, approx. 10 d, read-out: Kochia plant response rating): 30%
- pest or weed control at 31 g/ha ([2]; Echinochloa crus-galli, pre-emergence, 240 h, 31 g ai/ha, Preemergence, 0 to 100 scale where 0 is no effect and 100 is complete control, read-out: Barnyardgrass plant response rating): 10%
- pest or weed control at 125 g/ha ([2]; Echinochloa crus-galli, pre-emergence, 240 h, 125 g ai/ha, preemergence, 0 to 100 scale where 0 is no effect and 100 is complete control, approx. 10 d, read-out: Barnyardgrass plant response rating): 90%
- pest or weed control at 31 g/ha ([3]; Setaria faberi, pre-emergence, 240 h, 31 g ai/ha, Preemergence, 0 to 100 scale where 0 is no effect and 100 is complete control, read-out: Foxtail, Giant plant response rating): 60%
- pest or weed control at 125 g/ha ([3]; Setaria faberi, pre-emergence, 240 h, 125 g ai/ha, preemergence, 0 to 100 scale where 0 is no effect and 100 is complete control, approx. 10 d, read-out: Foxtail, Giant plant response rating): 100%
- pest or weed control at 31 g/ha ([4]; Amaranthus retroflexus, pre-emergence, 240 h, 31 g ai/ha, Preemergence, 0 to 100 scale where 0 is no effect and 100 is complete control, read-out: Pigweed plant response rating): 0%
- pest or weed control at 125 g/ha ([4]; Amaranthus retroflexus, pre-emergence, 240 h, 125 g ai/ha, preemergence, 0 to 100 scale where 0 is no effect and 100 is complete control, approx. 10 d, read-out: Pigweed plant response rating): 0%
- pest or weed control at 31 g/ha ([5]; Ambrosia artemisiifolia, pre-emergence, 240 h, 31 g ai/ha, Preemergence, 0 to 100 scale where 0 is no effect and 100 is complete control, read-out: Ragweed plant response rating): 0%
- pest or weed control at 125 g/ha ([5]; Ambrosia artemisiifolia, pre-emergence, 240 h, 125 g ai/ha, preemergence, 0 to 100 scale where 0 is no effect and 100 is complete control, approx. 10 d, read-out: Ragweed plant response rating): 0%
- pest or weed control at 31 g/ha ([6]; Lolium multiflorum, pre-emergence, 240 h, 31 g ai/ha, Preemergence, 0 to 100 scale where 0 is no effect and 100 is complete control, read-out: Ryegrass, Italian plant response rating): 30%
- pest or weed control at 125 g/ha ([6]; Lolium multiflorum, pre-emergence, 240 h, 125 g ai/ha, preemergence, 0 to 100 scale where 0 is no effect and 100 is complete control, approx. 10 d, read-out: Ryegrass, Italian plant response rating): 0%
- pest or weed control at 125 g/ha ([7]; Galium, post-emergence, 240 h, 125 g ai/ha, postemergence, visual injury on 0 to 100 scale (0 no effect, 100 complete control), approx. 10 d, read-out: Galium plant response rating): 30%
- pest or weed control at 31 g/ha ([7]; Galium, post-emergence, 240 h, Postemergence, 31 g ai/ha, visual injury after approx. 10 d, 0 to 100 scale, 0 no effect, 100 complete control, read-out: Plant response rating, Galium): 30%
- pest or weed control at 125 g/ha ([8]; Bassia scoparia, post-emergence, 240 h, 125 g ai/ha, postemergence, visual injury on 0 to 100 scale (0 no effect, 100 complete control), approx. 10 d, read-out: Kochia plant response rating): 30%
- pest or weed control at 31 g/ha ([8]; Bassia scoparia, post-emergence, 240 h, Postemergence, 31 g ai/ha, visual injury after approx. 10 d, 0 to 100 scale, 0 no effect, 100 complete control, read-out: Plant response rating, Kochia): 0%
- pest or weed control at 125 g/ha ([10]; Alopecurus myosuroides, post-emergence, 240 h, 125 g ai/ha, postemergence, visual injury on 0 to 100 scale (0 no effect, 100 complete control), approx. 10 d, read-out: Blackgrass plant response rating): 20%
- pest or weed control at 31 g/ha ([10]; Alopecurus myosuroides, post-emergence, 240 h, Postemergence, 31 g ai/ha, visual injury after approx. 10 d, 0 to 100 scale, 0 no effect, 100 complete control, read-out: Plant response rating, Blackgrass): 0%
- plant injury at 125 g/ha ([11]; Zea mays, post-emergence, 240 h, 125 g ai/ha, postemergence, visual injury on 0 to 100 scale (0 no effect, 100 complete control), approx. 10 d, read-out: Corn plant response rating): 20%
- Corn plant response rating (crop injury, 0 = no effect, 100 = complete kill) at 31 g/ha ([11]; Zea mays, post-emergence, 240 h, Postemergence, 31 g ai/ha, visual injury after approx. 10 d, 0 to 100 scale, 0 no effect, 100 complete control): 0%
- pest or weed control at 125 g/ha ([12]; Setaria faberi, post-emergence, 240 h, 125 g ai/ha, postemergence, visual injury on 0 to 100 scale (0 no effect, 100 complete control), approx. 10 d, read-out: Foxtail, Giant plant response rating): 80%
- pest or weed control at 31 g/ha ([12]; Setaria faberi, post-emergence, 240 h, Postemergence, 31 g ai/ha, visual injury after approx. 10 d, 0 to 100 scale, 0 no effect, 100 complete control, read-out: Plant response rating, Foxtail, Giant): 20%
- pest or weed control at 125 g/ha ([13]; Amaranthus retroflexus, post-emergence, 240 h, 125 g ai/ha, postemergence, visual injury on 0 to 100 scale (0 no effect, 100 complete control), approx. 10 d, read-out: Pigweed plant response rating): 0%
- pest or weed control at 31 g/ha ([13]; Amaranthus retroflexus, post-emergence, 240 h, Postemergence, 31 g ai/ha, visual injury after approx. 10 d, 0 to 100 scale, 0 no effect, 100 complete control, read-out: Plant response rating, Pigweed): 0%
- pest or weed control at 125 g/ha ([14]; Ambrosia artemisiifolia, post-emergence, 240 h, 125 g ai/ha, postemergence, visual injury on 0 to 100 scale (0 no effect, 100 complete control), approx. 10 d, read-out: Ragweed plant response rating): 0%
- pest or weed control at 31 g/ha ([14]; Ambrosia artemisiifolia, post-emergence, 240 h, Postemergence, 31 g ai/ha, visual injury after approx. 10 d, 0 to 100 scale, 0 no effect, 100 complete control, read-out: Plant response rating, Ragweed): 0%
- pest or weed control at 125 g/ha ([15]; Lolium multiflorum, post-emergence, 240 h, 125 g ai/ha, postemergence, visual injury on 0 to 100 scale (0 no effect, 100 complete control), approx. 10 d, read-out: Ryegrass, Italian plant response rating): 0%
- pest or weed control at 31 g/ha ([15]; Lolium multiflorum, post-emergence, 240 h, Postemergence, 31 g ai/ha, visual injury after approx. 10 d, 0 to 100 scale, 0 no effect, 100 complete control, read-out: Plant response rating, Ryegrass, Italian): 0%
- plant injury at 125 g/ha ([16]; Triticum aestivum, post-emergence, 240 h, 125 g ai/ha, postemergence, visual injury on 0 to 100 scale (0 no effect, 100 complete control), approx. 10 d, read-out: Wheat plant response rating): 20%
- plant injury at 31 g/ha ([16]; Triticum aestivum, post-emergence, 240 h, Postemergence, 31 g ai/ha, visual injury after approx. 10 d, 0 to 100 scale, 0 no effect, 100 complete control, read-out: Plant response rating, Wheat): 0%
- pest or weed control at 250 g/ha ([17]; Echinochloa crus-galli, read-out: Barnyardgrass plant response rating): 80%
- pest or weed control at 250 g/ha ([18]; Heteranthera limosa, read-out: Ducksalad plant response rating): 95%
- pest or weed control at 250 g/ha ([19]; Oryza sativa, read-out: Rice plant response rating): 0%
- pest or weed control at 250 g/ha ([20]; Cyperus difformis, read-out: Sedge, Umbrella plant response rating): 0%
